# Source: paper PMC12721191, “Oxidative hypoxia drives TGF-β1–induced fibrosis under normoxia” (Redox Biology, 2025)
# Tests used:
# [1] = test system: BLM-induced pulmonary fibrosis; assay: BLM-induced pulmonary fibrosis, Ashcroft scoring of lung sections; assay type: in vivo, ICR mice; details: BLM 30 mg/kg intratracheal; ACF-2 10 mg/kg i.p. every 2 days or NIDB 60 mg/kg/day in drinking water, 2 weeks; BLM-only 6.2
# Description: Male ICR mice received BLM (30 mg/kg, intratracheal). […] Fixed left lung lobes were paraffin-embedded, sectioned (4 μm), and stained with H&E or MT. A blinded pathologist graded pulmonary fibrosis on the 1-8 Ashcroft scale; representative images illustrate typical lesions. Colon samples were processed by the swiss-roll method, stained with H&E, and scored for inflammation and erosion, which were combined into a composite histological score. All animal studies were approved by the Institutional Animal Care and Use Committee of Jeju National University (Approval ID: 2024-0058) and conducted in compliance with institutional guidelines. Male ICR mice (6 weeks old, average body weight 27 g) were purchased from […] (South Korea) and housed under controlled temperature (22 ± 2 °C) and humidity (0.0 ± 15.0 %) on a 12 hr light-dark cycle with free access to food and water. […] Lung tissue: Left lung lobes were fixed in 4% paraformaldehyde for 24 h, dehydrated, and embedded in paraffin. Sections of 4 μm thickness were prepared, deparaffinized with xylene, and rehydrated in a graded ethanol series. H&E staining was performed using hematoxylin and eosin solutions, respectively. The severity of fibrosis was graded according to the Ashcroft scale (1-8), as evaluated by a pathologist blindly. Representative H&E images were chosen to illustrate the most characteristic pathology. […]
# MRC-5 = assay: Western blot of fibrosis markers in MRC-5; assay type: cell-based, human; details: MRC-5, TGF-β1 and ACF-2 co-treatment
# Description: RIPA lysates (BCA-normalized) were resolved by SDS-PAGE, transferred to nitrocellulose, and probed with the antibodies listed in Appendix S2. Protocols & Materials.
# Cells were lysed in RIPA buffer supplemented with a Protease Inhibitor Cocktail. Protein concentrations were determined using the SMART™ BCA Protein Assay Kit. Equal amounts of protein were separated by SDS-PAGE and transferred onto nitrocellulose membranes. Membranes were blocked with 5% skim milk in TBST and incubated overnight at 4 °C with the primary antibodies indicated below. Membranes were then washed and incubated for 1 hr at room temperature with the appropriate secondary antibodies. Protein bands were visualized using the Davinch Western Imaging system according to the manufacturer’s instructions. Band intensities were quantified using ImageJ software after background subtraction. The signal intensity of each target protein was normalized to the corresponding GAPDH band, and values were further normalized to the control group (set to 1 for each independent experiment).
smiles,measurement,setting,value
COc1ccc(-c2c(-c3ccc(O)c(OC)c3)oc3cc(OC)c(OC)cc3c2=O)cc1 [ACF-2],Average Ashcroft score,[1],3.3
same,"Fibronectin, COL4A6, α-SMA (Western blot)",MRC-5,same dose-dependent antifibrotic response
